Measurements reported in patent publication US9700052B2, “Methods and compositions comprising steroid honey bee feeding inhibitors” (Iowa State University Research Foundation, Inc., priority 2015, dated 2017).

System: honey bees, Apis mellifera
Assay: Artificial styrofoam flower foraging assay with 20% sucrose nectar tube
Format: in vivo
Settings: for Consumed, ml (nectar) / # feeding: n = 4
Experimental: To determine how the phytoecdysteroid inhibits bee foraging, we utilized artificial flowers so that the compounds can be added to a nectar source or sprayed on the surface of the artificial flower. The artificial flowers were made from green florist styrofoam blocks (12 cm^2) and petals made from blue and green tape. In the center of the styrofoam block a 2 ml test tube was inserted that contained a 20% sucrose solution in water as a substitute for nectar. The same array of holders was used as in the previous study (FIG. 2).
To determine if the repellent activity occurs in a concentration dependent manner we utilized the artificial flowers treated with various concentrations of the steroids in the nectar tube. In addition to observing the number of honey bees feeding from the nectar tube we measured the amount of nectar consumed after the observation period of about 45 min. The purified phytoecdysteroid was effective at 2.5 and 0.4 mg/ml in reducing the number of honey bees feeding on the nectar compared to lower concentrations. […] The pure 20-OH-ecdysone was also inhibitory at 1 mg/ml and 0.2 mg/ml with more foraging at the lower concentration. Cucurbitacin B was inhibitory at 0.5 mg/ml but not at 0.1 mg/ml.

[1] = 0.01 mg/ml in 2 ml nectar tube, about 45 min
[2] = 0.01 mg/ml in nectar tube, about 45 min
[3] = 0.1 mg/ml in 2 ml nectar tube, about 45 min
[4] = 0.1 mg/ml in nectar tube, about 45 min

## CC(C)(O)CC[C@@H](O)[C@](C)(O)[C@H]1CC[C@@]2(O)C3=CC(=O)[C@@H]4C[C@@H](O)[C@@H](O)C[C@]4(C)[C@H]3CC[C@]12C [20-hydroxyecdysone]
[1]
  Consumed, ml (nectar): 1.1 mL
[2]
  # feeding: 37
[3]
  Consumed, ml (nectar): 1.7 mL
[4]
  # feeding: 56
0.2 mg/ml in 2 ml nectar tube, about 45 min
  Consumed, ml (nectar): 0.25 mL
0.2 mg/ml in nectar tube
  inhibition of honey bees feeding on the nectar: inhibitory
0.2 mg/ml in nectar tube, about 45 min
  # feeding: 17
1 mg/ml in 2 ml nectar tube, about 45 min
  Consumed, ml (nectar): 0.05 mL
1 mg/ml in nectar tube
  inhibition of honey bees feeding on the nectar: inhibitory
1 mg/ml in nectar tube, about 45 min
  # feeding: 2

## CC(=O)OC(C)(C)/C=C/C(=O)[C@](C)(O)[C@H]1C(O)C[C@@]2(C)[C@@H]3CC=C4[C@H](CC(O)C(=O)C4(C)C)[C@@]3(C)C(=O)C[C@]12C (stereo partly drawn) [Cucurbitacin B]
[1]
  Consumed, ml (nectar): 1.9 mL
[2]
  # feeding: 4
[3]
  Consumed, ml (nectar): 1.2 mL
0.1 mg/ml in nectar tube
  inhibition of honey bees feeding on the nectar: not
[4]
  # feeding: 3
0.5 mg/ml in 2 ml nectar tube, about 45 min
  Consumed, ml (nectar): 0.3 mL
0.5 mg/ml in nectar tube
  inhibition of honey bees feeding on the nectar: inhibitory
0.5 mg/ml in nectar tube, about 45 min
  # feeding: 8

## C[C@H]([C@H](O)CCC(C)(C)O)[C@H]1CC[C@@]2(O)C3=CC(=O)[C@@H]4C[C@@H](O)[C@@H](O)C[C@]4(C)[C@H]3CC[C@]12C [Pure ecdsyone, ecdysone]
0.01 mg/ml in nectar tube
  inhibition of honey bees feeding on the nectar: not
0.1 mg/ml in nectar tube
  inhibition of honey bees feeding on the nectar: inhibitory
1 mg/ml in nectar tube
  inhibition of honey bees feeding on the nectar: inhibitory
Table 5, 0.01 mg/ml in 2 ml nectar tube
  Consumed, ml (nectar): 0.8 mL
Table 5, 0.01 mg/ml in nectar tube
  # feeding: 24
Table 5, 0.1 mg/ml in 2 ml nectar tube
  Consumed, ml (nectar): 0.3 mL
Table 5, 0.1 mg/ml in nectar tube
  # feeding: 0
Table 5, 1 mg/ml in 2 ml nectar tube
  Consumed, ml (nectar): 0.2 mL
Table 5, 1 mg/ml in nectar tube
  # feeding: 0
